Reference: US8247211B2, “Glycopeptide antibiotics” (American Cyanamid Company, priority 2001, dated 2012)
In brackets after ≈: the same amount, converted by molar mass.

Legend:
Test in all cases: In vitro antibacterial evaluation: minimum inhibitory concentration (MIC), broth dilution method
Format in all cases: cell-based
Details in all cases: 18 hours at 35° C.
Staphylococcus sp. = system: Staphylococcus sp.
In short: (§1)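 NCCLS M7-A2 broth dilution with Mueller-Hinton II, testing 64-0.06 μg/mL antibiotic against 5×10^5 CFU/mL inocula. Test strains include recent methicillin-, penicillin- or vancomycin-resistant clinical isolates. MIC is the lowest concentration preventing growth.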

Escherichia coli = system: Escherichia coli
In short: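 Susceptibility determined by NCCLS-recommended broth dilution (M7-A2), Muller-Hinton II […]. Concentration span 64-0.06 μg/mL, inoculum 5×10^5 CFU/mL. Isolates include strains resistant to methicillin, penicillin and/or vancomycin.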

Enterococcus sp. = system: Enterococcus sp.
In short: as §1

Streptococcus sp. = system: Streptococcus sp.
In short: as §1

[1] = Enterococcus faecalis (GC 2242)
[2] = Enterococcus faecalis (GC 2691)
[3] = Enterococcus faecalis (GC 3059)
[4] = broth dilution, inoculum 5×10^5 CFU/mL
[5] = Streptococcus agalactiae (GC 4564)
[6] = Streptococcus pneumoniae (ATCC 6301)
[7] = Streptococcus pneumoniae (GC 1894)
[8] = Streptococcus pneumoniae (GC 4565)
[9] = Streptococcus pyogenes (GC 4563)

CC(c1ccccc1)C1NC(=O)CNC(=O)C(CO)NC(=O)C(C(O)C2CNC(=N)N2C2OC(CO)C(O)C(O)C2O)NC(=O)C(C(O)C2CNC(=N)N2)NC(=O)C(Cc2ccc(OC3OC(CO)C(OC4OC(COCC=Cc5ccc(N(C)C)cc5)C(O)C(O)C4O)C(O)C3O)cc2)NC1=O (centres unmarked) [Example 243]
MIC Coagulase Negative Staphylococcus (GC 4547) (Staphylococcus sp.): 64 µg/mL (≈ 44 µM)
MIC Coagulase Negative Staphylococcus (GC 4548) (Staphylococcus sp.): 32 µg/mL (≈ 22 µM)
MIC Coagulase Negative Staphylococcus (GC 4549) (Staphylococcus sp.): 32 µg/mL (≈ 22 µM)
MIC Coagulase Negative Staphylococcus (GC 4551) (Staphylococcus sp.): 64 µg/mL (≈ 44 µM)
MIC Coagulase Negative Staphylococcus (GC 6257) (Staphylococcus sp.): 32 µg/mL (≈ 22 µM)
MIC Staphylococcus aureus (ATCC 29213) (Staphylococcus sp.): 64 µg/mL (≈ 44 µM)
MIC Staphylococcus aureus (GC 1131) (Staphylococcus sp.): 64 µg/mL (≈ 44 µM)
MIC Staphylococcus aureus (GC 3051) (Staphylococcus sp.): 64 µg/mL (≈ 44 µM)
MIC Staphylococcus aureus (GC 3053) (Staphylococcus sp.): 64 µg/mL (≈ 44 µM)
MIC Staphylococcus aureus (GC 4541) (Staphylococcus sp.): 64 µg/mL (≈ 44 µM)
MIC Staphylococcus aureus (GC 4542) (Staphylococcus sp.): 64 µg/mL (≈ 44 µM)
MIC Staphylococcus aureus (GC 4544) (Staphylococcus sp.): 64 µg/mL (≈ 44 µM)
MIC Staphylococcus aureus (GC 4545) (Staphylococcus sp.): 64 µg/mL (≈ 44 µM)
MIC Staphylococcus aureus-SMITH (GC 4543) (Staphylococcus sp.): 64 µg/mL (≈ 44 µM)
MIC Staphylococcus haemolyticus (GC 4546) (Staphylococcus sp.): 64 µg/mL (≈ 44 µM)
MIC Escherichia coli (ATCC 25922) (Escherichia coli): >64 µg/mL
MIC Escherichia coli (GC 4559) (Escherichia coli): >64 µg/mL
MIC Escherichia coli (GC 4560) (Escherichia coli): 64 µg/mL (≈ 44 µM)
MIC Enterococcus avium (GC 4558) (Enterococcus sp.): 32 µg/mL (≈ 22 µM)
MIC Enterococcus faecalis (ATCC 29212) (Enterococcus sp.): >64 µg/mL
MIC Enterococcus faecalis (GC 2242) (Enterococcus sp.; [1]): 64 µg/mL (≈ 44 µM)
MIC Enterococcus faecalis (GC 2691) (Enterococcus sp.; [2]): >64 µg/mL
MIC Enterococcus faecalis (GC 3059) (Enterococcus sp.; [3]): >64 µg/mL
MIC Enterococcus faecalis (GC 4552) (Enterococcus sp.): >64 µg/mL
MIC Enterococcus faecalis (GC 4553) (Enterococcus sp.): 64 µg/mL (≈ 44 µM)
MIC Enterococcus faecalis (GC 4554) (Enterococcus sp.): >64 µg/mL
MIC Enterococcus faecalis (GC 6189) (Enterococcus sp.): 64 µg/mL (≈ 44 µM)
MIC Enterococcus faecium (GC 2243) (Enterococcus sp.): 64 µg/mL (≈ 44 µM)
MIC Enterococcus faecium (GC 4556) (Enterococcus sp.): >64 µg/mL
MIC Enterococcus faecium (GC 4557) (Enterococcus sp.): 32 µg/mL (≈ 22 µM)
MIC Enterococcus faecalis (GC 2242) (Enterococcus sp.; [4]): 64 µg/mL (≈ 44 µM)
MIC Enterococcus faecalis (GC 2691) (Enterococcus sp.; [4]): >64 µg/mL
MIC Enterococcus faecalis (GC 3059) (Enterococcus sp.; [4]): >64 µg/mL
MIC Streptococcus agalactiae (GC 4564) (Streptococcus sp.; [5]): 32 µg/mL (≈ 22 µM)
MIC Streptococcus pneumoniae (ATCC 6301) (Streptococcus sp.; [6]): 32 µg/mL (≈ 22 µM)
MIC Streptococcus pneumoniae (GC 1894) (Streptococcus sp.; [7]): 8 µg/mL (≈ 5.5 µM)
MIC Streptococcus pneumoniae (GC 4565) (Streptococcus sp.; [8]): 16 µg/mL (≈ 11 µM)
MIC Streptococcus pyogenes (GC 4563) (Streptococcus sp.; [9]): 32 µg/mL (≈ 22 µM)
MIC Streptococcus agalactiae (GC 4564) (Streptococcus sp.; [4]): 32 µg/mL (≈ 22 µM)
MIC Streptococcus pneumoniae (ATCC 6301) (Streptococcus sp.; [4]): 32 µg/mL (≈ 22 µM)
MIC Streptococcus pneumoniae (GC 1894) (Streptococcus sp.; [4]): 8 µg/mL (≈ 5.5 µM)
MIC Streptococcus pneumoniae (GC 4565) (Streptococcus sp.; [4]): 16 µg/mL (≈ 11 µM)
MIC Streptococcus pyogenes (GC 4563) (Streptococcus sp.; [4]): 32 µg/mL (≈ 22 µM)

CC(c1ccccc1)C1NC(=O)CNC(=O)C(CO)NC(=O)C(C(O)C2CNC(=N)N2C2OC(CO)C(O)C(O)C2O)NC(=O)C(C(O)C2CNC(=N)N2)NC(=O)C(Cc2ccc(OC3OC(CO)C(OC4OC(CO)C(OCC=Cc5ccc(N(C)C)cc5)C(O)C4O)C(O)C3O)cc2)NC1=O (centres unmarked) [Example 243a]
MIC Coagulase Negative Staphylococcus (GC 4547) (Staphylococcus sp.): 32 µg/mL (≈ 22 µM)
MIC Coagulase Negative Staphylococcus (GC 4548) (Staphylococcus sp.): 32 µg/mL (≈ 22 µM)
MIC Coagulase Negative Staphylococcus (GC 4549) (Staphylococcus sp.): 16 µg/mL (≈ 11 µM)
MIC Coagulase Negative Staphylococcus (GC 4551) (Staphylococcus sp.): 32 µg/mL (≈ 22 µM)
MIC Coagulase Negative Staphylococcus (GC 6257) (Staphylococcus sp.): 16 µg/mL (≈ 11 µM)
MIC Staphylococcus aureus (ATCC 29213) (Staphylococcus sp.): 32 µg/mL (≈ 22 µM)
MIC Staphylococcus aureus (GC 1131) (Staphylococcus sp.): 32 µg/mL (≈ 22 µM)
MIC Staphylococcus aureus (GC 3051) (Staphylococcus sp.): 32 µg/mL (≈ 22 µM)
MIC Staphylococcus aureus (GC 3053) (Staphylococcus sp.): 32 µg/mL (≈ 22 µM)
MIC Staphylococcus aureus (GC 4541) (Staphylococcus sp.): 32 µg/mL (≈ 22 µM)
MIC Staphylococcus aureus (GC 4542) (Staphylococcus sp.): 32 µg/mL (≈ 22 µM)
MIC Staphylococcus aureus (GC 4544) (Staphylococcus sp.): 32 µg/mL (≈ 22 µM)
MIC Staphylococcus aureus (GC 4545) (Staphylococcus sp.): 32 µg/mL (≈ 22 µM)
MIC Staphylococcus aureus-SMITH (GC 4543) (Staphylococcus sp.): 32 µg/mL (≈ 22 µM)
MIC Staphylococcus haemolyticus (GC 4546) (Staphylococcus sp.): 32 µg/mL (≈ 22 µM)
MIC Escherichia coli (ATCC 25922) (Escherichia coli): >64 µg/mL
MIC Escherichia coli (GC 4559) (Escherichia coli): >64 µg/mL
MIC Escherichia coli (GC 4560) (Escherichia coli): 32 µg/mL (≈ 22 µM)
MIC Enterococcus avium (GC 4558) (Enterococcus sp.): 16 µg/mL (≈ 11 µM)
MIC Enterococcus faecalis (ATCC 29212) (Enterococcus sp.): 32 µg/mL (≈ 22 µM)
MIC Enterococcus faecalis (GC 2242) (Enterococcus sp.; [1]): 32 µg/mL (≈ 22 µM)
MIC Enterococcus faecalis (GC 2691) (Enterococcus sp.; [2]): 32 µg/mL (≈ 22 µM)
MIC Enterococcus faecalis (GC 3059) (Enterococcus sp.; [3]): 32 µg/mL (≈ 22 µM)
MIC Enterococcus faecalis (GC 4552) (Enterococcus sp.): 32 µg/mL (≈ 22 µM)
MIC Enterococcus faecalis (GC 4553) (Enterococcus sp.): 32 µg/mL (≈ 22 µM)
MIC Enterococcus faecalis (GC 4554) (Enterococcus sp.): 32 µg/mL (≈ 22 µM)
MIC Enterococcus faecalis (GC 6189) (Enterococcus sp.): 32 µg/mL (≈ 22 µM)
MIC Enterococcus faecium (GC 2243) (Enterococcus sp.): 32 µg/mL (≈ 22 µM)
MIC Enterococcus faecium (GC 4556) (Enterococcus sp.): 32 µg/mL (≈ 22 µM)
MIC Enterococcus faecium (GC 4557) (Enterococcus sp.): 16 µg/mL (≈ 11 µM)
MIC Enterococcus faecalis (GC 2242) (Enterococcus sp.; [4]): 32 µg/mL (≈ 22 µM)
MIC Enterococcus faecalis (GC 2691) (Enterococcus sp.; [4]): 32 µg/mL (≈ 22 µM)
MIC Enterococcus faecalis (GC 3059) (Enterococcus sp.; [4]): 32 µg/mL (≈ 22 µM)
MIC Streptococcus agalactiae (GC 4564) (Streptococcus sp.; [5]): 16 µg/mL (≈ 11 µM)
MIC Streptococcus pneumoniae (ATCC 6301) (Streptococcus sp.; [6]): 16 µg/mL (≈ 11 µM)
MIC Streptococcus pneumoniae (GC 1894) (Streptococcus sp.; [7]): 1 µg/mL (≈ 0.688 µM)
MIC Streptococcus pneumoniae (GC 4565) (Streptococcus sp.; [8]): 2 µg/mL (≈ 1.38 µM)
MIC Streptococcus pyogenes (GC 4563) (Streptococcus sp.; [9]): 8 µg/mL (≈ 5.5 µM)
MIC Streptococcus agalactiae (GC 4564) (Streptococcus sp.; [4]): 16 µg/mL (≈ 11 µM)
MIC Streptococcus pneumoniae (ATCC 6301) (Streptococcus sp.; [4]): 16 µg/mL (≈ 11 µM)
MIC Streptococcus pneumoniae (GC 1894) (Streptococcus sp.; [4]): 1 µg/mL (≈ 0.688 µM)
MIC Streptococcus pneumoniae (GC 4565) (Streptococcus sp.; [4]): 2 µg/mL (≈ 1.38 µM)
MIC Streptococcus pyogenes (GC 4563) (Streptococcus sp.; [4]): 8 µg/mL (≈ 5.5 µM)
